Measured values: the Biogen ADME set (Fang et al. 2023)
In brackets after ≈: the same amount, converted by molar mass.

Conditions: for aqueous solubility: pH 6.8

Row | SMILES | MDR1-MDCK efflux ratio | intrinsic clearance, human liver microsomes [mL/min/kg] | intrinsic clearance, rat liver microsomes [mL/min/kg] | aqueous solubility [µg/mL]
1 | c1cnc(N2CCC(Cc3ccncc3)CC2)nc1 | 0.575 | 10.9 | 146 | 58.1 (≈ 228 µM)
2 | C[n+]1cc2c3c(ccc2c2ccc4cc5c(cc4c21)OCO5)OCO3 | 13.5 | 8.23 | 58.2 | 32.2
3 | CCCN(CC)c1ccc(C(=O)N2CCCN(C(C)=O)CC2)cc1 | 6.92 | 25.7 | 308 | 48.4 (≈ 146 µM)
4 | COc1cccc(O[C@H]2CCN(C(=O)c3cc(-c4ccc(F)cc4)on3)CC[C@@H]2O)c1 | 0.882 | 66.3 | 577 | 
5 | NC(=O)Cn1nnc(-c2ccccc2F)n1 |  |  |  | 11.6 (≈ 52.2 µM)
6 | O=C(NCc1nc(-c2cnccn2)n[nH]1)C1Cc2ccccc2C1 | 8.75 | ≤ 4.74 | 19 | 
7 | Cc1ncsc1CCN1C(=O)NC2(CCCC2)C1=O |  | ≤ 4.74 | 172 | 
8 | O=C(NCc1ncc(-c2ccccc2)o1)C1CCCCC1 | 0.57 | 41.9 | 668 | 75.9 (≈ 267 µM)
9 | CC1CCC(NC(=O)c2oc3ccccc3c2CS(C)=O)CC1 (stereo unspecified) | 2.52 | 15.2 | 154 | 68.8 (≈ 206 µM)
10 | Cc1ccc(CNc2ncnn2C)nc1 | 0.685 | ≤ 4.74 | ≤ 10.7 | 
11 | Cc1ccc(C(=O)C2CCN(CC(=O)NC(=O)Nc3ccccc3)CC2)c(C)c1 | 0.559 | 64.3 | 936 | 
12 | COc1ccc(Cc2nnn[nH]2)cc1F |  | ≤ 4.74 | ≤ 10.7 | 
13 | COc1cc(/C=C2\CCCN([C@@H](C)c3ccc(F)cc3)C2=O)ccc1-n1cnc(C)c1 | 1.48 | 44.4 | 83.1 | 12.9 (≈ 30.8 µM)
14 | CC(C)(C)c1cc(C(=O)CSc2nnnn2-c2ccccc2)cc(C(C)(C)C)c1O |  | 26.1 | 55.8 | 
15 | N#Cc1cc(-c2ccccc2)sc1N |  |  |  | 3 (≈ 15 µM)
16 | CC(=O)NC1CCC(NCCc2c(C)cccc2C)CC1 (stereo unspecified) | 19.8 | ≤ 4.74 | 1140 | 

Row | SMILES | MDR1-MDCK efflux ratio | intrinsic clearance, human liver microsomes [mL/min/kg] | intrinsic clearance, rat liver microsomes [mL/min/kg] | aqueous solubility [µg/mL]
17 | CCCn1cc(CNc2ncccn2)cn1 |  | ≤ 4.74 | 56.5 | 
18 | CN(Cc1cccc(C#N)c1)Cc1cnn(C)c1 | 0.578 | ≤ 4.74 | ≤ 10.7 | 32.1 (≈ 134 µM)
19 | O=C(NCC1(c2ccc(F)cc2)CCOCC1)c1ccccn1 | 0.793 | 11.6 | 449 | 50 (≈ 159 µM)
20 | Cn1ccc(NC(=O)[C@H]2CCCCN2C(=O)OC(C)(C)C)n1 | 2.54 | ≤ 4.74 | 154 | 42.4 (≈ 137 µM)
21 | Cc1nn(C(C)C)c(C)c1S(=O)(=O)NCC1CCN(C(=O)C2CC2)CC1 | 83.8 | 92.1 | 445 | 
22 | CC(=O)Nc1ccc(CNCCOc2ccc(F)cc2F)cc1 | 1.57 | 12.5 | 114 | 
23 | O=C(Nc1cccc2cnccc12)c1cccc(F)c1 |  | 34.9 | 132 | 47.6 (≈ 179 µM)
24 | COCc1noc(CNC(=O)N(C)[C@@H](C)c2ccccc2)n1 | 2.71 | ≤ 4.74 | 63.5 | 
25 | CCOc1ccc(C(=O)Nc2cnn(C3CCOCC3)c2)cn1 | 1.41 | ≤ 4.74 | 106 | 39.9 (≈ 126 µM)
26 | Cc1noc(-c2ccc(NC(=O)Cc3ccccc3)cc2)n1 | 0.573 | 7.82 | 57.1 | 7.94 (≈ 27.1 µM)
27 | CN1CCC(N(Cc2cccnc2)C(=O)NCCCc2ccccc2)CC1 | 131 | 6.28 | 1140 | 
28 | CCn1c(=O)c2c(nc3n2CCN3c2cc(C)cc(C)c2)n(C)c1=O |  |  |  | 0.5 (≈ 1.47 µM)
29 | CSCC(=O)N1CCN(C(=O)CSC)C2(CCCCC2)C1 | 5.33 | 57.8 | 868 | 50.5 (≈ 153 µM)
30 | Cc1nccc(N(C)Cc2ccc(N)nc2)n1 | 4.39 | ≤ 4.74 | ≤ 10.7 | 
31 | Nc1ccccc1OCCn1ccnc1 | 0.815 | 7.07 | 30.6 | 24.7 (≈ 121 µM)
